ChEMBL document CHEMBL3881525, “Analogs of dehydrophenylahistins and their therapeutic use” (2007)
In brackets after ≈: the same amount, converted by molar mass. Activity calls are given as the source filed them. No cut-off for these calls is given here.

How the values were obtained:
[1] = molecular target: T1, Tubulin (Homo sapiens) (UniProt P68371+Q9H4B7+P0DPH7+P68366+Q13509+Q71U36+P04350+Q3ZCM7+P07437+P68363+Q9BQE3+Q6PEY2+Q13885+Q9BVA1+Q9BUF5); test: Time required for induction of microtubule dynamic instability in human MCF7 cells at IC25 for mitotic block measured after 20 hrs by immunofluorescence analysis; format: cell-based
[2] = Toxicity in mouse allografted with mouse N202 tumor spheroids expressing H2B-GFP assessed as effect on tumor surrounding vasculature in the dorsal skin fold at 5 mg/kg, iv administered on day 12 as infusion for 2 mins measured on day 15; format: organism-based; conditions: in vivo
[3] = Antitumor activity against human HT-29 cells xenografted in nude mouse assessed as tumor growth inhibition at 10 mg/kg, ip administered every third day for 5 days in presence of CPT-11 relative to control; format: functional; conditions: HT-29, ip, 120 h, read-out: TGI
[4] = Toxicity in mouse allografted with mouse N202 tumor spheroids expressing H2B-GFP assessed as effect on tumor surrounding vasculature in the dorsal skin fold at 10 mg/kg, iv administered on day 13 as infusion for 5 mins measured on day 15; format: organism-based; conditions: in vivo
[5] = Antifungal activity against Trichophyton mentagrophytes isolate 1 measured after 48 hrs by broth dilution method; format: functional
[6] = Cytotoxicity against human PC3 cells assessed as reduction in cell viability measured after 48 hrs by resazurin dye-based fluorometric analysis; format: functional; conditions: PC-3, 48 h
[7] = test system: Rattus norvegicus; test: Reduction in blood flow in rat kidney at 15 mg/kg, ip measured after 24 hrs by [125I]iodoantipyrine based method relative to vehicle control; format: ADME, organism-based; conditions: in vivo
[8] = test system: Mus musculus; test: Antivascular activity against mouse N202 tumor spheroids expressing H2B-GFP allografted in mouse assessed as inhibition of tumor-induced central vasculature at 10 mg/kg, iv administered on day 12 as infusion for 5 mins measured on day 15 by fluorescence video microscopy; format: functional, organism-based
[9] = molecular target: T1, Tubulin (Homo sapiens); test: Induction of microtubule depolymerization in HUVEC at 2 uM measured after 30 mins; format: cell-based
[10] = Antiproliferative activity against human mitoxantrone-resistant HL60/MX2 cells; format: functional, cell-based; conditions: HL-60
[11] = molecular target: T1, Tubulin (Homo sapiens); test: Induction of microtubule dynamic instability in human MCF7 cells assessed as effect on spindle morphology at mitotic block IC25 measured after 20 hrs by immunofluorescence analysis; format: cell-based
[12] = Cytotoxicity against mouse B16F10 cells assessed as reduction in cell viability measured after 48 hrs by resazurin dye-based fluorometric analysis; format: functional; conditions: B16-F10, 48 h
[13] = test system: HUVEC; test: Induction of monolayer permeability in HUVEC measured up to 15 mins; format: functional, cell-based; conditions: Homo sapiens
[14] = Toxicity in mouse allografted with mouse N202 tumor spheroids expressing H2B-GFP at 10 mg/kg, iv administered on day 13 as infusion for 5 mins; format: organism-based; conditions: in vivo
[15] = test system: P22; test: Induction of necrosis in rat P22 cells implanted in rat compound administered intraperitoneally measured after 24 hrs post dose; format: functional, cell-based
[16] = test system: HUVEC; test: Induction of apoptosis in HUVEC assessed as cell membrane blebbing; format: functional, cell-based; conditions: Homo sapiens
[17] = Antifungal activity against Trichophyton rubrum isolate 1 measured after 48 hrs by broth dilution method; format: functional
[18] = molecular target: T1, Tubulin (Homo sapiens); test: Induction of microtubule instability in human MCF7 cells assessed as mean shortening rate at IC25 for mitotic block measured after 20 hrs by immunofluorescence analysis; format: cell-based
[19] = molecular target: Tubulin (Bos taurus) (UniProt Q6B856+Q862L2+Q862F3); conditions: 10 uM
Description: Inhibition of [3H]CLC binding to bovine brain tubulin at 10 uM measured after 120 mins in presence of GTP by scintillation counting method

[20] = Toxicity in mouse allografted with mouse N202 tumor spheroids expressing H2B-GFP assessed as effect on tumor surrounding vasculature in the dorsal skin fold at 10 mg/kg, iv administered on day 12 as infusion for 5 mins measured on day 15; format: organism-based; conditions: in vivo
[21] = test system: Rattus norvegicus; test: Reduction in blood flow in rat heart at 15 mg/kg, ip measured after 24 hrs by [125I]iodoantipyrine based method relative to vehicle control; format: ADME, organism-based; conditions: in vivo
[22] = Cytotoxicity against human HT-29 cells assessed as reduction in cell viability measured after 48 hrs by resazurin dye-based fluorometric analysis; format: functional; conditions: Homo sapiens, HT-29, 48 h
[23] = molecular target: RAF proto-oncogene serine/threonine-protein kinase (Homo sapiens) (UniProt P04049); conditions: 10 uM
RAF proto-oncogene serine/threonine-protein kinase (Homo sapiens), sequence (P04049 whole entry): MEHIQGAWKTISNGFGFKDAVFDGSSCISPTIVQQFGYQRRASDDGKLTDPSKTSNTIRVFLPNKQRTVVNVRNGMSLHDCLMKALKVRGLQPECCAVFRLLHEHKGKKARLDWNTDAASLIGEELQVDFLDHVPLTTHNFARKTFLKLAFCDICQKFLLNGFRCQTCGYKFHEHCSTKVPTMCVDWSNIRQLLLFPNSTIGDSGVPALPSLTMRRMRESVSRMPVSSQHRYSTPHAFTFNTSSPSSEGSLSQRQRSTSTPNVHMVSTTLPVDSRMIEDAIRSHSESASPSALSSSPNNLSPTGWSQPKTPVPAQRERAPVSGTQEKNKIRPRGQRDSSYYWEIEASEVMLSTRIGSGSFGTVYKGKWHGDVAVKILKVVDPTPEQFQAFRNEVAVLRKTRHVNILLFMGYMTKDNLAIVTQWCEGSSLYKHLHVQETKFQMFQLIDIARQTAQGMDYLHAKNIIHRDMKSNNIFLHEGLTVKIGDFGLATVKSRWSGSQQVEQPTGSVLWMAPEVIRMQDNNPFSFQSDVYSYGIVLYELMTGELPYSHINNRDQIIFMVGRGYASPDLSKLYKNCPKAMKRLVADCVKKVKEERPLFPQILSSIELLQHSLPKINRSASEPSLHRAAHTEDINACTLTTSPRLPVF
Description: Inhibition of human c-RAF at 10 uM in presence of ATP

[24] = Antitumor activity against human DU145 cells xenografted in nude mouse assessed as tumor growth inhibition at 7.5 mg/kg, iv administered every third day for 5 days measured on day 28 relative to control; format: functional; conditions: DU-145, iv, read-out: TGI
[25] = molecular target: T1, Tubulin (Homo sapiens); test: Induction of microtubule instability in human MCF7 cells assessed as time spent for growth at IC25 for mitotic block measured after 20 hrs by immunofluorescence analysis; format: cell-based
[26] = Antifungal activity against Candida glabrata measured after 48 hrs by broth dilution method; format: functional; conditions: Nakaseomyces glabratus
[27] = molecular target: Tubulin alpha (Homo sapiens) (UniProt P0DPH7+P68366+Q71U36+P68363+Q9BQE3+Q6PEY2+A6NHL2+Q9NY65); test: Induction of alpha-tubulin depolymerization in HUVEC at 200 nM measured after 30 mins by DAPI staining based indirect immunofluorescence analysis; format: cell-based
[28] = test system: HUVEC; test: Induction of apoptosis in HUVEC assessed as cell shrinkage; format: functional, cell-based; conditions: Homo sapiens
[29] = molecular target: T1, Tubulin (Homo sapiens); test: Induction of microtubule depolymerization in human CCD-27Sk cells assessed as cell membrane blebbing at 2 uM measured after 30 mins; format: cell-based
[30] = test system: Rattus norvegicus; test: Effect on blood flow in rat heart at 15 mg/kg, ip measured after 1 hr by [125I]iodoantipyrine based method relative to vehicle control; format: ADME, organism-based; conditions: in vivo
[31] = test system: Jurkat; test: Induction of apoptosis in human Jurkat cells assessed as PARP cleavage at 100 nM measured after 10 hrs by Western blotting; format: functional, cell-based
[32] = molecular target: T1, Tubulin (Homo sapiens); test: Induction of microtubule instability in human MCF7 cells assessed as time spent for attenuation at IC50 for mitotic block measured after 20 hrs by immunofluorescence analysis; format: cell-based
[33] = Drug metabolism assessed as human hepatic cytochrome P450-mediated hydroxylated metabolite P3 and P5 formation; format: ADME
[34] = test system: HUVEC; test: Induction of monolayer permeability in HUVEC assessed as colchicin transport at 2 uM measured up to 1 hr; format: functional, cell-based; conditions: Homo sapiens
[35] = test system: MDA-MB-231; test: Antitumor activity against human MDA-MB-231 cells xenografted in nude mouse assessed as tumor growth inhibition at 7.5 mg/kg, ip administered thrice per day for 5 days in presence of paclitaxel relative to control; format: functional, organism-based
[36] = Antitumor activity against human HT-29 cells xenografted in nude mouse assessed as tumor growth inhibition at 7.5 mg/kg, ip administered every third day for 5 days relative to control; format: functional; conditions: HT-29, ip, 120 h, read-out: TGI
[37] = Antiproliferative activity against taxol-sensitive human MES-SA cells […]; format: functional, cell-based
[38] = Antifungal activity against Epidermophyton floccosum isolate 2 measured after 48 hrs by broth dilution method; format: functional
[39] = test system: Mus musculus; test: Antivascular activity against mouse N202 tumor spheroids expressing H2B-GFP allografted in mouse assessed as inhibition of tumor-induced central vasculature at 5 mg/kg, iv administered on day 12 as infusion for 2 mins measured on day 15 by fluorescence video microscopy; format: functional, organism-based

## CC(C)(C)c1[nH]cnc1/C=c1\[nH]c(=O)/c(=C/c2ccccc2)[nH]c1=O [PLINABULIN]
[1]
  TIME: 0.728 h
[2]
  Activity: Non-Toxic
[3]
  inhibition in vivo at 10 mg/kg: 65.8 to 83.3%
[4]
  Activity: Non-Toxic
[5]
  MIC: 2 µg/mL (≈ 5.95 µM)
[6]
  EC50: 1 to 13.4 nM
[7]
  Activity: Toxic
[8]
  inhibition: Active
[9]
  Activity: Active
[10]
  EC50: 8.17 nM
[11]
  Activity: Active
[12]
  EC50: 37.1 nM
[13]
  Activity: Dose-dependent effect
[14]
  Activity: Non-Toxic
[15]
  Activity: Dose-dependent effect
[16]
  Activity: Active
[17]
  MIC: > 16 µg/mL
[18]
  Activity: 31.9 um/min
[19]
  inhibition: Active
[20]
  Activity: Non-Toxic
[21]
  Activity: Toxic
[22]
  EC50: 9.8 to 48 nM
[23]
  inhibition: > 50%
[24]
  inhibition in vivo at 7.5 mg/kg: 92.5%
[25]
  Activity: 29.7%
  TIME: 0.00517 h
[26]
  MIC: > 32 µg/mL
[27]
  Activity: Active
[28]
  Activity: Active
[29]
  Activity: Active
[30]
  Activity: Non-Toxic
[31]
  Activity: Active
[32]
  TIME: 0.0102 h
[33]
  Drug metabolism: Metabolite_Detected
[34]
  Activity: Active
[35]
  TGI: Active
[36]
  inhibition in vivo at 7.5 mg/kg: 9%
[37]
  EC50: 8.5 to 34 nM
[38]
  MIC: > 16 µg/mL
[39]
  inhibition: Active
